Test results reported in patent US11571483B2, “E2F reporter melanoma cells” (THOMAS JEFFERSON UNIVERSITY, priority 2015, dated 2023).

Experiments:
E2F [1] = assay: E2F reporter assay in vitro (firefly luciferase normalized to actin); type: cell-based, human; settings: 1205Lu reporter cells; palbociclib (0.5 μM), 48 hours
Source text: CR=complete response. […] CR=complete response.
Tumor cells were also transduced with tdTomato fluorescent protein to selectively monitor tumor growth. […] In FIG. 8 1205Lu reporter cells were transfected with silencing RNA to control sequence, CDK4, CDK6 or both CDK4 and CDK6. […] Firefly luciferase activity was normalized to actin levels in each sample.

1205Lu xenografts = assay: 1205Lu reporter xenograft model, tumor volume / response; type: in vivo, immunodeficient nude mice
Source text: (§1) FIG. 7 A depicts the E2F reporter system for measuring the efficacy of CDK4/6 and MEK inhibitors in vivo. Firefly luciferase is expressed under the control of E2F response elements. […] CR=complete response. FIG. 7D depicts analysis of E2F reporter activity normalized to tdTomato fluorescent protein activity in 1205Lu xenografts. […] CR=complete response. FIG. 7G depicts representative images of 1205Lu xenografts taken from mice fed vehicle, MEK inhibitor, CDK4/6 inhibitor and combo-laced chow analyzed for Ki67. FIG. 7H depicts quantitation of Ki67 positive cells (% of total cells) taken from mice fed vehicle (n=2), MEK inhibitor (n=4), CDK4/6 inhibitor (n=4) and combo laced chow (n=4).
(§2) Indeed, in a performed xenograft mouse model, 1205Lu reporter cells were intradermally injected into immunodeficient nude mice.
(§3) Mice were retreated with combination regimen at day 67. FIG. 9B depicts modulation of E2F activity in combination treated mice following drug removal and retreatment. […] FIG. 9C depicts RPPA analysis on resistant tumors.

E2F [2] = assay: E2F reporter activity in 1205Lu xenografts (luciferase normalized to tdTomato); type: in vivo, immunodeficient nude mice; settings: drug-laced chow
Source text: as §1, §2, §3

| SMILES | reduction in firefly luciferase activity normalized to actin levels (E2F [1]) | complete regressions (1205Lu xenografts; MEK inhibitor chow (mouse #6)) | tumor regrowth on treatment (1205Lu xenografts; by treatment day 44) | tumor volume, initial response (1205Lu xenografts; drug-laced chow) | E2F reporter activity in tumors on treatment (E2F [2]) |
| --- | --- | --- | --- | --- | --- |
| CC(=O)c1c(C)c2cnc(Nc3ccc(N4CCNCC4)cn3)nc2n(C2CCCC2)c1=O [palbociclib] | 60% |  |  |  |  |
| O=C(NOC[C@H](O)CO)c1ccc(F)c(F)c1Nc1ccc(I)cc1F [PD0325901] |  | one complete regression | dramatic tumor regrowth | initially maintained tumor volumes at a static level | strong E2F reactivation |
